Source: patent US11180522B2, “Disulfide-linked reversible terminators” (Centrillion Technology Holdings Corporation, priority 2015, dated 2021)

Key:
[1] = tested on: Bst polymerase; details: incubation with 100 mM TCEP pH9.0, 65° C., 30 minutes
Protocol: Primer extension: For reactions with CENT1 enzyme, the enzyme was boiled for 5 minutes at 95° C. before use. 40 uL of hybridized beads were resuspended in 22.5 uL of reaction mixture (40 mM Tris-HCl pH8.8, 20 mM ammonium sulfate, 20 mM KCl, 0.2% Triton X-100, 2 mM MgSO4, 1.5 ug CENT1). Reactions were pre-warmed to 45° C. for one minute before adding 2.5 uL of 20 uM nucleotide (for a final concentration of 2 uM). After one minute of incorporation, reactions were quenched with 40 μL RB. Beads were washed with 40 μL RB and either resuspended in a new reaction mixture for further incorporation events or SP_T was eluted with 0.1 N NaOH for 10 minutes at room temperature then neutralized with 1.5 uL Tris-HCl pH8.0. For reactions with Bst large fragment (NEB), 40 uL of hybridized beads were resuspended in 22.5 uL of reaction mixture (40 mM Tris-HCl pH8.8, 20 mM ammonium sulfate, 20 mM KCl, 0.2% Triton X-100, 2 mM MgSO4, 40 U Bst). Reactions were pre-warmed to 37° C. for one minute before adding 2.5 uL of 1 mM dNTPs (NEB) (for a final concentration of 100 uM). After five minutes at 37° C., reactions were quenched with 40 μL RB. Beads were washed with 40 μL RB and SP_T was eluted with 0.1N NaOH for 10 minutes at room temperature then neutralized with 1.5 uL Tris-HCl pH8.0.
Cleavage of Reversible Terminators: After incorporation of reversible terminators, beads were resuspended in 100 mM TCEP pH9.0 (Gold Bio) and incubated at 65° C. for 30 minutes before quenching with 100 μL RB. Beads were washed with 40 μL RB and either resuspended in a new reaction mixture for further incorporation events or SP_T was eluted with 0.1N NaOH for 10 minutes at room temperature then neutralized with 1.5 uL Tris-HCl pH8.0.

[2] = tested on: Bst polymerase; details: "runaway" reaction with Bst polymerase, 100 uM dNTPs, 37° C., before TCEP treatment
Protocol: For reactions with Bst large fragment (NEB), 40 uL of hybridized beads were resuspended in 22.5 uL of reaction mixture (40 mM Tris-HCl pH8.8, 20 mM ammonium sulfate, 20 mM KCl, 0.2% Triton X-100, 2 mM MgSO4, 40 U Bst). Reactions were pre-warmed to 37° C. for one minute before adding 2.5 uL of 1 mM dNTPs (NEB) (for a final concentration of 100 uM). After five minutes at 37° C., reactions were quenched with 40 μL RB. Beads were washed with 40 μL RB and SP_T was eluted with 0.1N NaOH for 10 minutes at room temperature then neutralized with 1.5 uL Tris-HCl pH8.0.
Denaturing PAGE: An equal volume of 2×TBE-Urea Sample Buffer (Novex, Thermo Fisher) was added to samples before heat-denaturation for five minutes at 85° C. 10 μL sample and a 10 bp ladder (TrackIt, Invitrogen) on a 15% TBE-Urea PAGE gel (Novex, Thermo Fisher) in 1×TBE for two hours at 160V. Gels were imaged for fluorescence before staining and again after staining with SYBR Gold (Thermo) on an AlphaImager 3400.

[3] = tested on: DNA polymerase CENT1; test: Primer extension assay with DNA polymerase CENT1; format: biochemical; details: 2 uM nucleotide, 45° C., one minute, denaturing PAGE
Protocol: (§1) Oligo Preparation: Oligos were purchased from IDT and stored at 500 uM in nuclease-free water: A biotinylated target sequence (Biot_Primer1_Capt, 5′-/5Biosg/[…] TTTCAG-3′ (SEQ ID NO: 1)) and a sequencing primer (SP_T, 5′-[…]-3′ (SEQ ID NO: 2)). 8 nmol of the biotinylated template sequence was conjugated to streptavidin-coated magnetic beads (T1 Dynabeads, Invitrogen) for one hour at room temperature in a solution containing 1M NaCl, 10 mM Tris-HCl pH7.5, 1 mM EDTA. Beads were washed three times with wash buffer at 60° C. (0.64×SSC, 0.016% SDS) to remove unbound primer and stored in 800 μL reaction binding buffer, RB, (1M NaCl, 25 mM Tris-HCl pH7.5, 0.01% TWEEN20) at 4° C. To hybridize the sequencing primer to the template, 100 uL of conjugated beads were incubated with a saturating amount of SP_T (2.5 nmol) in 200 μL RB at 70° C. for five minutes, 55° C. for 15 minutes, then 25° C. for 5 minutes. Hybridized beads were stored in 360 uL RB at room temperature.

[4] = tested on: enhanced DNA polymerase (EDP); test: Primer extension assay with enhanced DNA polymerase (EDP); format: biochemical; details: denaturing PAGE, FIG. 12
Protocol: as §1

Compound	De-blocking (removal of 3′-azidomethyl cap, extension resumes) [1]	Blocking of further extension after terminator incorporation [2]	Primer extension (incorporation of the terminator into the growing DNA chain) catalyzed by CENT1 [3]	Primer extension (incorporation of the terminator) catalyzed by EDP [4]
3′-O-azidomethyl-5-(Alexa530-dithiolinker-carbamate)-dUTP [compound 34]	De-blocking was accomplished	Blocking of further extension after terminator incorporation is observed	extension was catalyzed	
CC(C)(C)OC(=O)NCCSSCCOC(=O)NCC#Cc1cn([C@H]2CC(OCN=[N+]=[N-])[C@@H](COP(=O)(O)OP(=O)(O)OP(=O)(O)O)O2)c(=O)[nH]c1=O (stereo partly drawn) [compound 31]	De-blocking was accomplished		extension was catalyzed	extension was catalyzed
[N-]=[N+]=NCOC1C[C@H](n2cc(C#CCNC(=O)OCCSSCCNC(=O)c3ccc(-c4c5ccc(=O)cc-5oc5cc(O)ccc45)c(C(=O)O)c3)c(=O)[nH]c2=O)O[C@@H]1COP(=O)(O)OP(=O)(O)OP(=O)(O)O (stereo partly drawn) [compound 33, 3′-O-azidomethyl-5-(Fluorescein-dithiolinker-cabamate)-2′-deoxyuridinetriphosphate]	De-blocking was accomplished	Blocking of further extension after terminator incorporation is observed	extension was catalyzed	
